Measurements reported in patent US9738932B2, “Biomarkers for cardiovascular side-effects induced by cox-2 inhibitory compounds” (FIRALIS SAS, priority 2005, dated 2017).

Tested on: mRNA expression in cardiovascular tissues
Assay: Affymetrix GeneChip mRNA expression profiling of monkey tissues (iliac vein, pulmonary vein, aorta, carotid artery, heart) after two-week oral-gavage treatment
Details: iliac vein; group avg, Vioxx without A60055

O=C(O)Cc1ccccc1Nc1c(Cl)cccc1Cl [Voltaren]
HFE (211329_x_at) avg fold change vs control: 0.9 fold
HFE (211332_x_at) avg fold change vs control: 0.9 fold
HFE (211863_x_at) avg fold change vs control: 1.0 fold
HFE (211866_x_at) avg fold change vs control: 0.9 fold
HHL (203020_at) avg fold change vs control: 0.8 fold
HLA-A (211528_x_at) avg fold change vs control: 1.1 fold
HLA-A (211529_x_at) avg fold change vs control: 1.2 fold
HLA-A (211530_x_at) avg fold change vs control: 1.6 fold
HLA-A (215313_x_at) avg fold change vs control: 1.3 fold
HLA-B (208729_x_at) avg fold change vs control: 1.2 fold
HLA-B (209140_x_at) avg fold change vs control: 1.2 fold
HLA-B (211911_x_at) avg fold change vs control: 1.2 fold
HLA-C (208812_x_at) avg fold change vs control: 1.2 fold
HLA-C (214459_x_at) avg fold change vs control: 1.3 fold
HLA-C (216526_x_at) avg fold change vs control: 1.5 fold
HLA-DMA (217478_s_at) avg fold change vs control: 1.3 fold
HLA-DMB (203932_at) avg fold change vs control: 1.0 fold
HLA-DQA1 (212671_s_at) avg fold change vs control: 1.2 fold
HLA-DQB1 (209823_x_at) avg fold change vs control: 1.3 fold
HLA-DQB1 (211654_x_at) avg fold change vs control: 1.6 fold
HLA-DQB1 (211656_x_at) avg fold change vs control: 1.2 fold
HLA-DQB2 (212998_x_at) avg fold change vs control: 2.2 fold
HLA-DRA (208894_at) avg fold change vs control: 1.1 fold
HLA-DRA (210982_s_at) avg fold change vs control: 1.0 fold
HLA-DRB1 (215193_x_at) avg fold change vs control: 1.3 fold
HLA-DRB3 (209312_x_at) avg fold change vs control: 1.1 fold
HLA-DRB6 (217362_x_at) avg fold change vs control: 1.0 fold
HLA-E (200905_x_at) avg fold change vs control: 1.2 fold
HLA-E (217456_x_at) avg fold change vs control: 1.2 fold
HLA-F (204806_x_at) avg fold change vs control: 1.0 fold
HLA-F (221875_x_at) avg fold change vs control: 1.0 fold
ICAM1 (202638_s_at) avg fold change vs control: 1.5 fold
ICAM1 (215485_s_at) avg fold change vs control: 1.1 fold
ICSBP1 (204057_at) avg fold change vs control: 1.1 fold
IFI27 (202411_at) avg fold change vs control: 5.6 fold
IFI30 (201422_at) avg fold change vs control: 1.4 fold
IFI44 (214453_s_at) avg fold change vs control: 1.7 fold
IFIT1 (203153_at) avg fold change vs control: 1.0 fold
IFIT2 (217502_at) avg fold change vs control: 0.8 fold
IFIT4 (204747_at) avg fold change vs control: 0.9 fold
IFITM2 (201315_x_at) avg fold change vs control: 1.6 fold
IFITM3 (212203_x_at) avg fold change vs control: 1.3 fold
IGF1 (209541_at) avg fold change vs control: 1.2 fold
IGFBP4 (201508_at) avg fold change vs control: 0.8 fold
IL1A (208200_at) avg fold change vs control: 1.2 fold
IL2RG (204116_at) avg fold change vs control: 1.2 fold
IL27RA (205926_at) avg fold change vs control: 1.3 fold
INDO (210029_at) avg fold change vs control: 1.4 fold
INPP5D (203332_s_at) avg fold change vs control: 1.2 fold
IRF1 (202531_at) avg fold change vs control: 1.1 fold
IRF7 (208436_s_at) avg fold change vs control: 1.2 fold
ISGF3G (203882_at) avg fold change vs control: 1.4 fold
ITGB2 (202803_s_at) avg fold change vs control: 1.0 fold
JAK1 (214377_s_at) avg fold change vs control: 1.1 fold
KLKB1 (206541_at) avg fold change vs control: 1.2 fold
LAIR1 (208071_s_at) avg fold change vs control: 0.8 fold
LCK (204890_s_at) avg fold change vs control: 0.9 fold
LCP2 (205270_s_at) avg fold change vs control: 1.2 fold
LILRB1 (207857_at) avg fold change vs control: 0.8 fold
LILRB1 (211100_x_at) avg fold change vs control: 1.2 fold
LILRB3 (208594_x_at) avg fold change vs control: 1.4 fold
LILRB3 (210225_x_at) avg fold change vs control: 1.3 fold
LRMP (204674_at) avg fold change vs control: 1.6 fold
LY86 (205859_at) avg fold change vs control: 1.2 fold
LY96 (206584_at) avg fold change vs control: 1.4 fold
LYN (210754_s_at) avg fold change vs control: 1.1 fold
MAF (209348_s_at) avg fold change vs control: 0.9 fold
PCOLCE (202465_at) avg fold change vs control: 0.3 fold
PLA2G4C (209785_s_at) avg fold change vs control: 1.0 fold
PLCL2 (216217_at) avg fold change vs control: 1.0 fold
PLSCR1 (202446_s_at) avg fold change vs control: 1.5 fold
PRC1 (218009_s_at) avg fold change vs control: 0.8 fold
PRG1 (201858_s_at) avg fold change vs control: 1.1 fold
PRG1 (201859_at) avg fold change vs control: 1.2 fold
PTPN22 (206060_s_at) avg fold change vs control: 0.9 fold
PTPRC (207238_s_at) avg fold change vs control: 1.3 fold
SOCS3 (206360_s_at) avg fold change vs control: 1.4 fold
STAT1 (209969_s_at) avg fold change vs control: 2.3 fold
STAT1 (AFFX-HUMISGF3A/M97935_5_at) avg fold change vs control: 1.0 fold
STAT1 (AFFX-HUMISGF3A/M97935_MA_at) avg fold change vs control: 1.0 fold
STAT1 (AFFX-HUMISGF3A/M97935_MB_at) avg fold change vs control: 1.1 fold
TAPBP (208829_at) avg fold change vs control: 1.0 fold
TCTEL1 (201999_s_at) avg fold change vs control: 0.9 fold
TLR1 (210176_at) avg fold change vs control: 1.3 fold
TLR2 (204924_at) avg fold change vs control: 1.4 fold
TNFAIP3 (202643_s_at) avg fold change vs control: 1.3 fold
TNFAIP3 (202644_s_at) avg fold change vs control: 1.7 fold
TNFSF6 (210865_at) avg fold change vs control: 1.2 fold
TNFSF10 (202687_s_at) avg fold change vs control: 1.2 fold
TNFSF10 (202688_at) avg fold change vs control: 1.1 fold
TRGC2 (211144_x_at) avg fold change vs control: 1.0 fold
TRGC2 (216920_s_at) avg fold change vs control: 1.2 fold
VCAM1 (203868_s_at) avg fold change vs control: 1.4 fold
XCL1 (206366_x_at) avg fold change vs control: 1.8 fold
XCL1 (214567_s_at) avg fold change vs control: 0.5 fold
XLKD1 (219059_s_at) avg fold change vs control: 1.4 fold
cig5 (213797_at) avg fold change vs control: 2.1 fold
